Measurements reported in PMC7037610, “Novel Cationic Prodrug of Ubiquinol-10 Enhances Intestinal Absorption via Efficient Formation of Nanosized Mixed-Micelles with Bile Acid Anions” (Molecules, 2020).
“And” between values parts separate entries of the source, which are not always exact repeats. Equal values may be shown once. Where a name gives a salt, the structure may show the parent alone. Marks after values point to notes of the source that are not given here.

Key:
[1] = parameters: method as in Japanese Pharmacopoeia monograph; settings: ref Japanese Pharmacopoeia monograph, cited from earlier work
Water solubility = format: physicochemical; settings: in water
Protocol: The aqueous solubility of each ester was determined by adding 20 μmol of each compound to 1 mL distilled water in amber test tubes and incubating the tubes at 25 ± 1 °C in a constant-temperature water bath. The test tubes were shaken for 24 h and the suspensions were centrifuged at 1250× g for 10 min. The supernatants were diluted 10-fold with distilled water and assayed by the HPLC method described in Section 3.9.1.
(§1) The Shimadzu HPLC system (Shimadzu, Kyoto, Japan) consisted of a pump (LC-10AD), an autoinjector (SIL-10ADvp), a UV detector (SPD-10Avp), and a column oven (CTO-10Avp). The eluent was monitored spectrophotometrically at 280 nm. Compounds were analyzed on a YMC-Pack C8 reversed-phase column (φ 4.6 × 250 mm, YMC Co., Ltd., Kyoto, Japan) protected by a µBondapak C18 Guard-Pak (Waters Co., Milford, MA, USA) with a degassed mobile phase of methanol and 2-propanol (850/150, v/v) at 0.8 mL/min. UqH-10 and Uq-10 were quantified using linear calibration curves of peak areas versus concentrations. UqH-10 was partly oxidized during the preparation procedure. Therefore, the sum of UqH-10 and Uq-10 represented total UqH-10. Retention times were: UqH-10, 11.6 min; UqH-ester derivatives, 13.2 min and Uq-10, 15.4 min.

[2] = Enzymatic hydrolysis of UqH-derivatives in rat liver microsomes; format: in vitro ADME; settings: for Km / Vmax: pH 7.4, 37 °C
Protocol: (§2) The hydrolysis of esters was analyzed at 37 °C in phosphate buffered saline (PBS) containing commercially available rat or human liver microsomes (In Vitro Technologies, Inc., Baltimore, MD, USA). The microsomes (20 mg/mL) were adjusted to a protein concentration of 2 mg/mL and were preincubated at 37 °C for 5 min before adding the esters.
Stock solutions of esters were prepared in ethanol. The enzymatic reactions were initiated by adding 10 µL ester stock solution (final concentration 0.1–0.4 mM) and 50 μL PBS to 940 µL of preheated reaction medium containing rat or human liver microsomes in amber test tubes. These reactions were incubated at 37 °C and, at various times, 100 μL aliquots were removed and mixed with 100 µL 10% trichloroacetic acid. Samples were then vortex mixed for 2 min and 800 µL ethyl acetate was added, with vortex mixing for 5 min. The samples were centrifuged at 1250× g for 10 min. The 20 µL organic layer was analyzed by the HPLC system described in Section 3.9.1. The initial hydrolytic rate (mM UqH-10 formed per min) was calculated from the initial slope of a plot of UqH-10 concentration versus time.
as §1

[3] = Micellization of UqH-DMG in water (visual inspection, solubilizing point vs temperature); format: physicochemical; settings: for Appearance of solution: 45 mM in water
Protocol: UqH-DMG was diluted to intended concentrations with milliQ water in glass tubes. The test tubes were incubated in a water bath equipped with a thermometer. The solution appearance was visually inspected and the solubilizing points were plotted on a concentration versus incubation temperature curve.

[4] = Mixed-micellization with taurocholic acid (appearance of mixtures); format: physicochemical
Protocol: (§3) A solution of 20 mM UqH-DMG was prepared in distilled water and incubated at 36.5 °C until the solution was translucent. The solution was combined with 10 mM TCA aqueous solution in the final molar ratios of 1:0.5–10 UqH-DMG:TCA.

[5] = Particle size by dynamic light scattering (Zetasizer Nano ZS); format: physicochemical; settings: mean ± SD
Protocol: as §3
The Z-average of diameters of the particles of aqueous solution of UqH-DMG prepared in a polystyrene cuvette in Section 3.7.1. above were determined by a Zetasizer Nano ZS (MALVERN, Worcestershire, UK). The measurements were performed three independent times for each sample.

[6] = tested on: esterases in rat liver microsomes; experiment: Effect of eserine on UqH-4-DMG hydrolysis in rat liver microsomes; format: biochemical; settings: eserine 0–2.0 mM
Protocol: (§4) Effects of eserine on UqH-4-DMG hydrolysis in liver microsomes was also examined, using similar methods, with 50 µL eserine aqueous solution added, instead of PBS, to the mixtures with liver microsomes. Eserine was tested at 0–2.0 mM.

[7] = tested on: esterases in human liver microsomes; experiment: Effect of eserine on UqH-4-DMG hydrolysis in human liver microsomes; format: biochemical; settings: eserine 0–2.0 mM
Protocol: as §4

[8] = Enzymatic hydrolysis of UqH-derivatives in human liver microsomes; format: in vitro ADME; settings: pH 7.4, 37 °C, Michaelis–Menten fit
Protocol: as §2
Stock solutions of esters were prepared in ethanol. The enzymatic reactions were initiated by adding 10 µL ester stock solution (final concentration 0.1–0.4 mM) and 50 μL PBS to 940 µL of preheated reaction medium containing rat or human liver microsomes in amber test tubes. […] The 20 µL organic layer was analyzed by the HPLC system described in Section 3.9.1. The initial hydrolytic rate (mM UqH-10 formed per min) was calculated from the initial slope of a plot of UqH-10 concentration versus time.
The Shimadzu HPLC system (Shimadzu, Kyoto, Japan) consisted of a pump (LC-10AD), an autoinjector (SIL-10ADvp), a UV detector (SPD-10Avp), and a column oven (CTO-10Avp). The eluent was monitored spectrophotometrically at 280 nm. Compounds were analyzed on a YMC-Pack C8 reversed-phase column (φ 4.6 × 250 mm, YMC Co., Ltd., Kyoto, Japan) protected by a µBondapak C18 Guard-Pak (Waters Co., Milford, MA, USA) with a degassed mobile phase of methanol and 2-propanol (850/150, v/v) at 0.8 mL/min. […]

[9] = calculated using generated UqH-10 levels after sequential hydrolysis

For `COC1=C(OC)C(=O)C(C/C=C(\C)CC/C=C(\C)CC/C=C(\C)CC/C=C(\C)CC/C=C(\C)CC/C=C(\C)CC/C=C(\C)CC/C=C(\C)CC/C=C(\C)CCC=C(C)C)=C(C)C1=O` [Uq-10, Ubiquinone-10], the Water solubility ([1]; even when diluted to this concentration) is given as under 116 µM and the Water solubility descriptor [1] is given as “practically insoluble, or insoluble”.
In the case of `COc1c(OC(=O)CN(C)C)c(C)c(C/C=C(\C)CC/C=C(\C)CC/C=C(\C)CC/C=C(\C)CC/C=C(\C)CC/C=C(\C)CC/C=C(\C)CC/C=C(\C)CC/C=C(\C)CCC=C(C)C)c(OC(=O)CN(C)C)c1OC` (as salt: hydrochloride) [UqH-DMG, 2,3-dimethoxy-5-methyl-6-decaprenyl-benzene-1,4-bis-N,N–dimethyl glycinate], the melting point is reported as 179 to 181 °C.
With `COc1c(O)c(C)c(C/C=C(\C)CC/C=C(\C)CC/C=C(\C)CC/C=C(\C)CC/C=C(\C)CC/C=C(\C)CC/C=C(\C)CC/C=C(\C)CC/C=C(\C)CCC=C(C)C)c(OC(=O)CN(C)C)c1OC` [UqH-1-DMG] the “Water solubility compared with UqH bis-ester (UqH-DMG)” value (Water solubility) was “lower”, the Km ([2]; Michaelis–Menten fit) was 4630 µM and the Vmax ([2]; Michaelis–Menten fit) was 8.21e-07 M/min.
For `COc1c(OC(=O)CN(C)C)c(C)c(C/C=C(\C)CC/C=C(\C)CC/C=C(\C)CC/C=C(\C)CC/C=C(\C)CC/C=C(\C)CC/C=C(\C)CC/C=C(\C)CC/C=C(\C)CCC=C(C)C)c(OC(=O)CN(C)C)c1OC` [UqH-DMG, 2,3-dimethoxy-5-methyl-6-decaprenyl-benzene-1,4-bis-N,N–dimethyl glycinate], the solubility at 24 h (Water solubility; distilled water, read-out: Water solubility (transparent solution in water at concentrations up to)) was at most 5000 µM, the Appearance of solution ([3]; 27.0 °C) was “opaque” and the Appearance of solution ([3]; 36.5 °C) was “transparent”. The “Krafft's point” value ([3]; in water) was “around 36.5 °C”, the “Appearance of mixture with taurocholic acid” value ([4]; UqH-DMG:TCA molar ratio 1:0.5) was “slightly cloudy” and the “Appearance of mixture with taurocholic acid” value ([4]; UqH-DMG:TCA molar ratios 1:1 to 1:10) was “transparent”. For the same compound, the Z-average particle diameter ([5]; 20 mM in water, without TCA, prepared at 36.5 °C) was 20.38 ± 0.14 nm and 20 nm, the Z-average particle diameter ([5]; UqH-DMG:TCA mixture at 1:1 molar ratio) was 5.183 ± 0.033 nm and 5 nm and the Km [2, 9] was 3890 µM. The Vmax [2, 9] was 0.603 ^a ×10^−6 M·min^−1.
With `CNC(=O)Oc1ccc2c(c1)[C@]1(C)CCN(C)[C@@H]1N2C` [eserine, physostigmine sulfate] the “Effect on UqH-4-DMG hydrolysis” value [6] was “inhibited” and the “Effect on UqH-4-DMG hydrolysis” value [7] was “inhibited”.
In the case of `COc1c(O)c(C/C=C(\C)CC/C=C(\C)CC/C=C(\C)CC/C=C(\C)CC/C=C(\C)CC/C=C(\C)CC/C=C(\C)CC/C=C(\C)CC/C=C(\C)CCC=C(C)C)c(C)c(OC(=O)CN(C)C)c1OC` [UqH-4-DMG], the “Water solubility compared with UqH bis-ester (UqH-DMG)” value (Water solubility) is reported as “lower”, the “Solubilization with taurocholic acid” value ([4]; 10-times molar-equivalents taurocholic acid) is reported as “solubilized” and the “Vmax/Km relative to UqH-1-DMG” value [2] is reported as 8.9 fold. The Km ([2]; Michaelis–Menten fit) was 75.1 µM, the Vmax ([2]; Michaelis–Menten fit) was 1.19e-07 M/min and the Km [8] was 72.2 µM. The Vmax [8] was 1.23e-07 M/min.
